From patent US10806736B2 (priority 2018, dated 2020)
Entries after “also recorded” stand apart in the source; their conditions may differ.

Key:
[1] = test system: p53; assay: p53 protein expression by western blotting in macrophages infected with M. tuberculosis; type: cell-based; details: rat BMDMs infected with M. tuberculosis H37Ra (one bacterium per cell); 10 μM; compared to Nutlin-3α; β-actin inner control
Source text: It is confirmed whether p53 is expressed, when a cell is infected with M. tuberculosis, by subjecting the cell to the compound (K279-1558). Also, in order to analyze the role of p53 expression, the effect of p53 expression is confirmed from macrophages infected with M. tuberculosis. The cells were infected with avirulent M. tuberculosis (Mycobacterium tuberculosis H37Ra) in a ratio of one bacterium per cell by using bone marrow-derived macrophages (BMDMs), which is a rat-derived macrophage, and then the cells were subjected to Nutlin-3α and the compound (K279-1558) in a concentration of 10 μM. Thereafter, the number of M. tuberculosis surviving in the cells was measured.

[2] = test system: Mycobacterium tuberculosis H37Ra; type: cell-based; details: 10 μM; after 24 hours

Structure (SMILES) | p53 activity / degree of p53 protein expression (western blotting) [1] | number of M. tuberculosis surviving in macrophages [2]
CCC(SC1=Nc2ccccc2C2=NC(CC(=O)NCCc3ccccc3)C(=O)N12)C(=O)NCc1ccc(C)cc1 (stereo not drawn) [K279-1558] | remarkably higher; also recorded: increases remarkably | dropped sharply; also recorded: decreased sharply
COc1ccc(C2=N[C@@H](c3ccc(Cl)cc3)[C@@H](c3ccc(Cl)cc3)N2C(=O)N2CCNC(=O)C2)c(OC(C)C)c1 [Nutlin-3α, reference compound] | – | decreased sharply
